SMILES strings stand for the structures.

Experiment [1] addresses T1, human cathepsin F (Homo sapiens, UniProt Q9UBX1).
T1 sequence (Q9UBX1 271-484): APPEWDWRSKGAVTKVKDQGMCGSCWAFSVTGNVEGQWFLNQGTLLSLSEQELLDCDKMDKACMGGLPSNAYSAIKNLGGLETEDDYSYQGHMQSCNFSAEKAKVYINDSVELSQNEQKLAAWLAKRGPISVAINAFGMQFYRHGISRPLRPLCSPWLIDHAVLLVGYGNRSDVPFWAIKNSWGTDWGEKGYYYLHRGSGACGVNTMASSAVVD
As to the kind of experiment: Cathepsin F assay (hCat F). In kind it is biochemical. As to conditions: Z-Phe-Arg-AMC substrate, pH 5.5, 15 min preincubation; read-out: hCat F (IP (nM)). In short, it runs like this:
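Enzyme (10 nM) was preincubated 15 min at room temperature with compounds (1/3 DMSO dilution series, 500–0.025 μM) in 50 mM MES pH 5.5, 2.5 mM EDTA, 2.5 mM DTT, 10% DMSO. Z-Phe-Arg-AMC (8 μM) was added and AMC fluorescence (Ex 360/Em 460 nm) followed for 20 min. % inhibition was fitted to dose-response curves.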

The target of experiment [2] is human cathepsin K (UniProt P43236). The experiment in a line: Cathepsin K Assay (hrbCat K). In kind it is biochemical. As to conditions: Z-Leu-Arg-AMC substrate, pH 5.5, 15 min preincubation; read-out: hrbCat K (IP (nM)). A digest of the protocol:
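Human cathepsin K (0.4 nM) was preincubated 15 min at room temperature with compound in 50 mM MES pH 5.5, 2.5 mM EDTA, 2.5 mM DTT and 10% DMSO. Inhibition was fitted to a dose-response model.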

On to `N#CC1(NC(=O)[C@@H]2CCCC[C@H]2c2nc(-c3ccc(F)cn3)sc2-c2ccc(N3CCS(=N)(=O)CC3)cc2)CC1` [Example 136, (1R,2R)-N-(1-cyanocyclopropyl)-2-(2-(5-fluoropyridin-2-yl)-5-(4-(1-imino-1-oxidothiomorpholino)phenyl)thiazol-4-yl)cyclohexane-carboxamide], for which the IC50 in experiment [1] came out at 1660 nM; in experiment [2], 1.9 nM.

In the case of `CN=S1(=O)CCN(c2ccc(-c3sc(-c4cncc(F)c4)nc3[C@@H]3CCCC[C@H]3C(=O)NC3(C#N)CC3)cc2)CC1` [Example 138, (1R,2R)-N-(1-cyanocyclopropyl)-2-(2-(5-fluoropyridin-3-yl)-5-(4-(1-(methylimino)-1-oxidothiomorpholino)phenyl)thiazol-4-yl)cyclohexane-carboxamide], the IC50 in experiment [1] came out at 2130 nM; in experiment [2], 1.9 nM.

Take `CN=S1(=O)CCN(c2ccc(-c3sc(-c4ccc(F)cn4)nc3[C@@H]3CCCC[C@H]3C(=O)NC3(C#N)CC3)cc2)CC1` [Example 139, (1R,2R)-N-(1-cyanocyclopropyl)-2-(2-(5-fluoropyridin-2-yl)-5-(4-(1-(methylimino)-1-oxidothiomorpholino)phenyl)thiazol-4-yl)cyclohexane-carboxamide]: the IC50 in experiment [1] came out at 2750 nM; in experiment [2] it was 3.3 nM.

On to `N#CC1(NC(=O)[C@@H]2C[C@@H](F)CC[C@H]2c2nc(-c3ccc(F)cn3)sc2-c2ccc(N3CCS(=N)(=O)CC3)cc2)CC1` [Example 141, (1R,2R,5S)-N-(1-cyanocyclopropyl)-5-fluoro-2-(2-(5-fluoropyridin-2-yl)-5-(4-(1-imino-1-oxidothiomorpholino)phenyl)thiazol-4-yl)cyclohexane-carboxamide], for which the results for the IC50 in experiment [1] and in experiment [2] were 1000 nM and 2.3 nM, respectively.

Turning to `CC1(C)CN(c2nc([C@@H]3CCCC[C@H]3C(=O)NC3(C#N)CC3)c(-c3ccc(N4CCS(=O)(=O)CC4)cc3)s2)CCO1` [Example 142, (1R,2R)-N-(1-cyanocyclopropyl)-2-(2-(2,2-dimethylmorpholino)-5-(4-(1,1-dioxidothiomorpho-lino)phenyl)thiazol-4-yl)cyclohexane-carboxamide], the IC50 in experiment [1] was found to be 3400 nM; in experiment [2], 5.8 nM.

Regarding `CNC(=O)N1CC(c2ccc(-c3sc(-c4ccc(F)cc4)nc3[C@@H]3CCCC[C@H]3C(=O)NC3(C#N)CC3)cc2)C1` [Example 143, 3-(4-(4-((1R,2R)-2-((1-cyanocyclopropyl)carbamoyl)cyclohex-yl)-2-(4-fluorophenyl)thiazol-5-yl)phenyl)-N-methylazetidine-1-carboxamide], the IC50 in experiment [1] came to 134 nM; in experiment [2], 2 nM.

Turning to `N#CC1(NC(=O)[C@@H]2CCCC[C@H]2c2nc(N3CCO[C@@H](C(F)(F)F)C3)sc2-c2ccc(N3CCS(=O)(=O)CC3)cc2)CC1` [Example 144, (1R,2R)-N-(1-cyanocyclopropyl)-2-(5-(4-(1,1-dioxidothiomorpho-lino)phenyl)-2-((R)-2-(trifluoromethyl)morpholino)thiazol-4-yl)cyclohexane-carboxamide], the values for the IC50 in experiment [1] and in experiment [2] were 5280 nM and 3.3 nM, respectively.

`N#CC1(NC(=O)[C@@H]2CCCC[C@H]2c2nc(N3CCO[C@H](C(F)(F)F)C3)sc2-c2ccc(N3CCS(=O)(=O)CC3)cc2)CC1` [Example 145, (1R,2R)-N-(1-cyanocyclopropyl)-2-(5-(4-(1,1-dioxidothiomorpho-lino)phenyl)-2-((S)-2-(trifluoromethyl)morpholino)thiazol-4-yl)cyclohexane-carboxamide]: the IC50 was found to be 7050 nM in experiment [1] and 4.3 nM in experiment [2].

Take `N#CC1(NC(=O)[C@@H]2CCCC[C@H]2c2nc(C3CCCOC3)sc2-c2ccc(N3CCS(=O)(=O)CC3)cc2)CC1` (stereo partly drawn) [Example 146, (1R,2R)-N-(1-cyanocyclopropyl)-2-(5-(4-(1,1-dioxidothiomorpho-lino)phenyl)-2-(tetrahydro-2H-pyran-3-yl)thiazol-4-yl)cyclohexane-carboxamide]: the IC50 in experiment [1] was 1000 nM; in experiment [2], 4.6 nM.

On to `N#CC1(NC(=O)[C@@H]2CCCC[C@H]2c2nc([C@@H]3CCCCO3)sc2-c2ccc(N3CCS(=O)(=O)CC3)cc2)CC1` [Example 149, (1R,2R)-N-(1-cyanocyclopropyl)-2-(5-(4-(1,1-dioxidothiomorpho-lino)phenyl)-2-((S)-tetrahydro-2H-pyran-2-yl)thiazol-4-yl)cyclohexane-carboxamide], for which the IC50 was 7560 nM in experiment [1] and 3.6 nM in experiment [2].

`N#CC1(NC(=O)[C@@H]2CCCC[C@H]2c2nc(-c3ccc(F)cc3)sc2-c2ccc(C3CN(C(=O)NCC(F)(F)F)C3)cc2)CC1` [Example 150, 3-(4-(4-((1R,2R)-2-((1-cyanocyclopropyl)carbamoyl)cyclohex-yl)-2-(4-fluorophenyl)thiazol-5-yl)phenyl)-N-(2,2,2-trifluoroethyl) azetidine-1-carboxamide]: the IC50 worked out at 110 nM in experiment [1] and 1.6 nM in experiment [2].

`CC(=O)N1CC(c2ccc(-c3sc(-c4ccc(F)cc4)nc3[C@@H]3CCCC[C@H]3C(=O)NC3(C#N)CC3)cc2)C1` [Example 151, (1R,2R)-2-(5-(4-(1-acetylazetidin-3-yl)phenyl)-2-(4-fluorophenyl)thiazol-4-yl)-N-(1-cyanocyclopropyl) cyclohexanecarbox-amide]: the IC50 in experiment [1] was 177 nM; in experiment [2] it was 1.3 nM.

`CN(CC(F)(F)F)c1nc([C@@H]2CCCC[C@H]2C(=O)NC2(C#N)CC2)c(-c2ccc(N3CCS(=O)(=O)CC3)cc2)s1` [Example 152, (1R,2R)-N-(1-cyanocyclopropyl)-2-(5-(4-(1,1-dioxidothiomorpho-lino)phenyl)-2-(methyl(2,2,2-trifluoroethyl)amino)thiazol-4-yl)cyclohexane-carboxamide]: the IC50 in experiment [1] was at least 10000 nM; in experiment [2], 7 nM.

For `N#CC1(NC(=O)[C@@H]2CCCC[C@H]2c2nc(N3CCC(F)(F)C3)sc2-c2ccc(N3CCS(=O)(=O)CC3)cc2)CC1` [Example 153, (1R,2R)-N-(1-cyanocyclopropyl)-2-(2-(3,3-difluoropyrrolidin-1-yl)-5-(4-(1,1-dioxidothiomorpho-lino)phenyl)thiazol-4-yl)cyclohexane-carboxamide], the values for the IC50 in experiment [1] and in experiment [2] were 1000 nM and 3.1 nM, respectively.

For the molecule `N#CC1(NC(=O)[C@@H]2CCCC[C@H]2c2nc([C@@H]3CCOC3)sc2-c2ccc(N3CCS(=O)(=O)CC3)cc2)CC1` [Example 155, (1R,2R)-N-(1-cyanocyclopropyl)-2-(5-(4-(1,1-dioxidothiomorpho-lino)phenyl)-2-((R)-tetrahydrofuran-3-yl)thiazol-4-yl)cyclohexane-carboxamide], the IC50 in experiment [1] came out at 1000 nM; in experiment [2], 4 nM.

With `N#CC1(NC(=O)[C@@H]2CCCC[C@H]2c2nc(NCC(F)(F)F)sc2-c2ccc(N3CCS(=O)(=O)CC3)cc2)CC1` [Example 156, (1R,2R)-N-(1-cyanocyclopropyl)-2-(5-(4-(1,1-dioxidothiomorpho-lino)phenyl)-2-((2,2,2-trifluoroethyl)amino)thiazol-4-yl)cyclohexane-carboxamide], the IC50 was at least 10000 nM in experiment [1] and 8.8 nM in experiment [2].

The values above are taken from US9573913B2, “Cathepsin cysteine protease inhibitors” (Merck Sharp & Dohme Corp., priority 2013, dated 2017).
